{"source": "patent EP1234878A1", "about": "“USE OF DISEASE-ASSOCIATED GENE” (Takeda Chemical Industries, Ltd., priority 1999, dated 2001)", "data": [{"test_system": "human CLCA1 protein, SEQ ID NO: 2 (human CLCA1 expressing CHO cells)", "assay": "Cl- ion secretion assay using human CLCA1-expressing CHO cells (MEQ fluorescence, ionomycin stimulation)", "assay_type": "cell-based", "conditions": "anionic transport inhibitor added at 200 µM or 10 µM (FIG. 11), room temperature for 30 minutes, then ionomycin 10 µM; Cl- ion fluorescence indicator MEQ", "protocol": "Human CLCA1-expressing plasmid pcDNA-hCLCA1 shown in EXAMPLE 6 was transfected to CHO cells using Gene transfer lyo (manufactured by Wako Pure Chemical Industries, Ltd.) in accordance with the attached manual. The cells were subjected to selective culture for 10 days in MEM-α medium (manufactured by GIBCO BRL) supplemented with 1 mg/ml of neomycin (G418) (manufactured by GIBCO BRL) to obtain the cells grown as human CLCA1 expressing CHO cells. The human CLCA1 expressing CHO cells and parent CHO cells were seeded on a 96-well plate (manufactured by Packard Inc.) coated with 2 µg/ml of fibronectin (manufactured by Itoham Foods, Inc.), respectively, in a concentration of 4 x 10^4 cells/well, followed by culturing at 37°C for 24 hours under 5% CO2. After completion, the culture solution was washed once with a buffer solution containing no Cl^- ions (2.4 mM K2HPO4, 0.6 mM KH2PO4, 10 mM D-glucose, 1 mM MgSO4, 1 mM CaSO4, 135 mM NaNO3, 10 mM HEPES, pH 7.4), and 1 mM of Cl^- ion fluorescence indicator 6-methoxy-N-ethylquinolinium iodide (MEQ, manufactured by Moelcular Probes, Inc.) was added in an amount of 100 µl/well to the culture solution, followed by incubation at 37°C for further 2 hours. The culture solution was further washed twice with a Cl^- ion-containing buffer solution (2.4 mM K2HPO4, 0.6 mM KH2PO4, 10 mM D-glucose, 1 mM MgSO4, 1 mM CaSO4, 135 mM NaCl, 10 mM HEPES, pH 7.4), and then allowed to stand at room temperature for 30 minutes. Each well was replaced by the buffer solution containing no Cl^- ions and ionomycin was added to make the concentration of 10 µM. Immediately thereafter, the fluorescence intensity was measured at an excited wavelength of 355 nm and a measurement wavelength of 460 nm, usingamulti-label counter Wallac1420ARVOsx (manufactured by Amersham Pharmacia Biotech).\nWhen stimulated with 10 µM ionomycin (manufactured by Wako Pure Chemical Industries, Inc.), the fluorescence intensity increased in human CLCA1 expressing CHO cells by about twice, as compared to the parent CHO cells (FIG. 10). […]", "values": [{"smiles": "O[C@H](CS)[C@H](O)CS", "note": "(racemic) [dithiothreitol]", "increase of the fluorescence intensity by ionomycin stimulation of human CLCA1 expressing CHO cells": "suppressed"}, {"smiles": "O=S(=O)(O)c1cc(N=C=S)ccc1C=Cc1ccc(N=C=S)cc1S(=O)(=O)O", "note": "[4,4'-diisothiocyanastilbene-2,2'-disulfonic acid]", "increase of the fluorescence intensity by ionomycin stimulation of human CLCA1 expressing CHO cells": "suppressed"}, {"smiles": "O=C(O)c1cccnc1Nc1cccc(C(F)(F)F)c1", "note": "[niflumic acid]", "increase of the fluorescence intensity by ionomycin stimulation of human CLCA1 expressing CHO cells": "suppressed"}]}]}
